Values quoted from earlier work as cited in patent publication US12465592B2, “Structured encapsulated silicon-containing particles” (SISAF LIMITED, priority 2019, dated 2025).

aqueous solubility: < 1 µg/mL
SMILES: Clc1ccc(COC(Cn2ccnc2)c2ccc(Cl)cc2Cl)c(Cl)c1 (stereo not shown) [Miconazole]
